# In US4272437A, “Antibacterial agents, and 4-thio azetidinone intermediates” (priority 1979, dated 1981):
# Read-outs that look alike come from different tables or passages of the source.
# Legend:
# Pr. vulgaris A-9716 = assay: MIC, tube dilution, Proteus vulgaris / Proteus mirabilis A9716; type: cell-based, Proteus vulgaris (name changed to Proteus mirabilis); conditions: overnight 37° C.; for MIC: Proteus vulgaris
# From the text: (§1) Representative compounds of the present invention were subjected to in vitro antibiotic screening against a variety of microorganisms.
# Ser. marcescens A-20019 = assay: MIC, tube dilution, Serratia marcescens A20019; type: cell-based; conditions: overnight 37° C.; for MIC: Serratia marcescens, A20019, Serratia marcescens A20019, read-out: Minimum Inhibitory Concentration (M.I.C.)
# From the text: as §1
# Ent. cloacae A-9659 = assay: MIC, tube dilution, Enterobacter cloacae A9659; type: cell-based; conditions: overnight 37° C.; for MIC: Enterobacter cloacae, A9659, Enterobacter cloacae A9659, read-out: Minimum Inhibitory Concentration (M.I.C.)
# From the text: as §1
# Str. pyogenes A-9604 = assay: MIC, tube dilution, Streptococcus pyogenes A9604; type: cell-based; conditions: overnight 37° C., Nutrient Broth; for MIC: Streptococcus pyogenes, A9604, Str. pyogenes A9604, read-out: Minimum Inhibitory Concentration (M.I.C.)
# From the text: as §1
# Staph. aureus A-9537 = assay: MIC, tube dilution, Staphylococcus aureus A9537; type: cell-based; conditions: overnight 37° C., Nutrient Broth; for MIC: Staphylococcus aureus, A9537, Staph. aureus A9537, read-out: Minimum Inhibitory Concentration (M.I.C.)
# From the text: as §1
# E. coli A-15119 = assay: MIC, tube dilution, Escherichia coli A15119; type: cell-based; conditions: overnight 37° C.; for MIC: Escherichia coli, A15119, E. coli A15119, read-out: Minimum Inhibitory Concentration (M.I.C.)
# From the text: as §1
# E. coli A-20341-1 = assay: MIC, tube dilution, Escherichia coli A20341-1; type: cell-based; conditions: E. coli A20341-1, overnight 37° C.; for MIC: Escherichia coli, A203411, read-out: Minimum Inhibitory Concentration (M.I.C.)
# From the text: as §1
# Pr. morganii A-15153 = assay: MIC, tube dilution, Proteus morganii A15153; type: cell-based; conditions: overnight 37° C.; for MIC: Morganella morganii, A15153, Proteus morganii A15153, read-out: Minimum Inhibitory Concentration (M.I.C.)
# From the text: as §1
# Ps. aeruginosa A-21213 = assay: MIC, tube dilution, Pseudomonas aeruginosa A21213; type: cell-based; conditions: Pseudomonas aeruginosa A21213, overnight 37° C.; for MIC: read-out: Minimum Inhibitory Concentration (M.I.C.)
# From the text: as §1
# Pr. mirabilis A-9900 = assay: MIC, tube dilution, Proteus mirabilis A9900; type: cell-based; conditions: overnight 37° C.; for MIC: Proteus mirabilis, A9900, Proteus mirabilis A9900, read-out: Minimum Inhibitory Concentration (M.I.C.)
# From the text: as §1
# Ent. cloacae A-9656 = assay: MIC, tube dilution, Enterobacter cloacae A9656; type: cell-based; conditions: overnight 37° C.; for MIC: read-out: Minimum Inhibitory Concentration (M.I.C.)
# From the text: as §1
# [1] = system: Providencia stuartii A21205; assay: MIC, tube dilution, Providencia stuartii (Pr. rettgeri) A21205; type: cell-based; conditions: for MIC: Providencia stuartii
# From the text: as §1
# K. pneumoniae A-15130 = assay: MIC, tube dilution, Klebsiella pneumoniae A15130; type: cell-based; conditions: overnight 37° C.; for MIC: Klebsiella pneumoniae, A15130, K. pneumoniae A15130, read-out: Minimum Inhibitory Concentration (M.I.C.)
# From the text: as §1
# [2] = system: Staph. aureus (Meth-Res) A-15097; assay: MIC, tube dilution, Staphylococcus aureus A15097 (Meth-Res); type: cell-based; conditions: overnight 37° C.; for MIC: Staphylococcus aureus
# From the text: as §1
# [3] = system: Klebsiella species A20468; assay: MIC, tube dilution, Klebsiella species A20468; type: cell-based; conditions: Klebsiella species (K. pneumoniae) A20468, overnight 37° C.; for MIC: read-out: Minimum Inhibitory Concentration (M.I.C.)
# From the text: as §1
# Ps. aeruginosa A-9843A = assay: MIC, tube dilution, Pseudomonas aeruginosa A9843A; type: cell-based; conditions: overnight 37° C.; for MIC: Pseudomonas aeruginosa, A9843A, read-out: Minimum Inhibitory Concentration (M.I.C.), Pseudomonas aeruginosa A9843A
# From the text: as §1
# Str. faecalis A-20688 = assay: MIC, tube dilution, Streptococcus faecalis A20688; type: cell-based; conditions: overnight 37° C.; for MIC: Enterococcus faecalis, A20688, Str. faecalis A20688, read-out: Minimum Inhibitory Concentration (M.I.C.)
# From the text: as §1
# [4] = system: Staph. aureus A-9537 and 50% serum; assay: MIC, tube dilution, Staph. aureus A9537 + 50% serum; type: cell-based, Staphylococcus aureus; conditions: overnight 37° C.; for MIC: Staphylococcus aureus, read-out: Minimum Inhibitory Concentration (M.I.C.)
# From the text: as §1
# Str. pneumoniae A-9585 = assay: MIC, tube dilution, Streptococcus pneumoniae A9585; type: cell-based; conditions: overnight 37° C., Nutrient Broth; for MIC: Streptococcus pneumoniae, A9585, Str. pneumoniae A9585, read-out: Minimum Inhibitory Concentration (M.I.C.)
# From the text: as §1
# [5] = system: Staph. aureus (Pen-Res) A-9606; assay: MIC, tube dilution, Staphylococcus aureus A9606 (Pen-Res); type: cell-based; conditions: overnight 37° C.; for MIC: Staphylococcus aureus
# From the text: as §1
# [6] = A9716, Proteus vulgaris / Proteus mirabilis A9716, read-out: Minimum Inhibitory Concentration (M.I.C.)
# [7] = A21205, Providencia stuartii (Pr. rettgeri) A21205, overnight 37° C., read-out: Minimum Inhibitory Concentration (M.I.C.)
# [8] = Staph. aureus A9606 (Pen-Res), read-out: Minimum Inhibitory Concentration (M.I.C.)
# [9] = read-out: Minimum Inhibitory Concentration (M.I.C.), Staph. aureus A15097 (Meth-Res)
SMILES,MIC (Pr. vulgaris A-9716; [6]),MIC (Ser. marcescens A-20019),MIC (Ent. cloacae A-9659),MIC (Str. pyogenes A-9604),MIC (Staph. aureus A-9537),MIC (E. coli A-15119),MIC (E. coli A-20341-1),MIC (Pr. morganii A-15153),MIC (Ps. aeruginosa A-21213),MIC (Pr. mirabilis A-9900),MIC (Ent. cloacae A-9656; Enterobacter cloacae A9656),"MIC [1, 7]",MIC (K. pneumoniae A-15130),MIC [3],MIC (Ps. aeruginosa A-9843A),MIC (Str. faecalis A-20688),MIC [4],MIC (Str. pneumoniae A-9585),"MIC [5, 8]","MIC [2, 9]",further results
"CSC1C(=O)N2C(C(=O)O)=C(C)SC12 (stereo not shown) [Example 5, Potassium 6-Thiomethyl-2-methylpenem-3-carboxylate]",32 µg/mL,63 µg/mL,125 µg/mL,4 µg/mL,4 µg/mL,63 µg/mL,125 µg/mL,125 µg/mL,> 125 µg/mL,63 µg/mL,125 µg/mL,32 µg/mL,63 µg/mL,> 125 µg/mL,> 125 µg/mL,125 µg/mL,> 63 µg/mL,0.5 µg/mL,9 µg/mL,,"MIC ([2]; Staph. aureus A15097 (Meth-Res), read-out: Minimum Inhibitory Concentration (M.I.C.)): 63 µg/mL"
"O=C(O)C1=C(COc2ccccc2)S[C@@H]2CC(=O)N12 [Example 11, 2-Phenoxymethylpenem-3-carboxylic Acid]",,,,,,,,,,,,,,,,,,,,,"Minimum Inhibitory Concentration (M.I.C.) (Pr. vulgaris A-9716; Proteus vulgaris / Proteus mirabilis A9716): 16 µg/mL; Minimum Inhibitory Concentration (M.I.C.) (Ser. marcescens A-20019; Serratia marcescens A20019): > 125 µg/mL; Minimum Inhibitory Concentration (M.I.C.) (Ent. cloacae A-9659; Enterobacter cloacae A9659): > 125 µg/mL; Minimum Inhibitory Concentration (M.I.C.) (Str. pyogenes A-9604; Str. pyogenes A9604): .5 µg/mL; Minimum Inhibitory Concentration (M.I.C.) (Staph. aureus A-9537; Staph. aureus A9537): 1 µg/mL; Minimum Inhibitory Concentration (M.I.C.) (E. coli A-15119; E. coli A15119): 63 µg/mL; Minimum Inhibitory Concentration (M.I.C.) (E. coli A-20341-1): > 125 µg/mL; Minimum Inhibitory Concentration (M.I.C.) (Pr. morganii A-15153; Proteus morganii A15153): 16 µg/mL; Minimum Inhibitory Concentration (M.I.C.) (Ps. aeruginosa A-21213): > 125 µg/mL; Minimum Inhibitory Concentration (M.I.C.) (Pr. mirabilis A-9900; Proteus mirabilis A9900): 16 µg/mL; Minimum Inhibitory Concentration (M.I.C.) (Ent. cloacae A-9656; Enterobacter cloacae A9656): > 125 µg/mL; Minimum Inhibitory Concentration (M.I.C.) ([1]; Providencia stuartii (Pr. rettgeri) A21205, overnight 37° C.): 63 µg/mL; Minimum Inhibitory Concentration (M.I.C.) (K. pneumoniae A-15130; K. pneumoniae A15130): > 125 µg/mL; Minimum Inhibitory Concentration (M.I.C.) ([2]; Staph. aureus A15097 (Meth-Res)): 1 µg/mL; Minimum Inhibitory Concentration (M.I.C.) [3]: > 125 µg/mL; Minimum Inhibitory Concentration (M.I.C.) (Ps. aeruginosa A-9843A; Pseudomonas aeruginosa A9843A): > 125 µg/mL; Minimum Inhibitory Concentration (M.I.C.) (Str. faecalis A-20688; Str. faecalis A20688): 63 µg/mL; Minimum Inhibitory Concentration (M.I.C.) [4]: 63 µg/mL; Minimum Inhibitory Concentration (M.I.C.) (Str. pneumoniae A-9585; Str. pneumoniae A9585): .5 µg/mL; Minimum Inhibitory Concentration (M.I.C.) ([5]; Staph. aureus A9606 (Pen-Res)): .5 µg/mL"
"O=C(O)C1=C(CCCCN2C(=O)c3ccccc3C2=O)SC2CC(=O)N12 (stereo not shown) [Example 43, 2-(4'-Phthalimido-1'-butyl)penem-3-carboxylic Acid]",16 µg/mL,16 µg/mL,> 125 µg/mL,0.25 µg/mL,0.03 µg/mL,63 µg/mL,> 125 µg/mL,32 µg/mL,> 125 µg/mL,32 µg/mL,125 µg/mL,63 µg/mL,> 125 µg/mL,> 125 µg/mL,> 125 µg/mL,16 µg/mL,63 µg/mL,0.016 µg/mL,16 µg/mL,> 125 µg/mL,
"COCC1=C(C(=O)[O-])N2C(=O)C[C@H]2S1.[Na+] [Preparation 6, Sodium 2-Methoxymethylpenem-3-carboxylate]",,4 µg/mL,4 µg/mL,0.25 µg/mL,0.5 µg/mL,2 µg/mL,125 µg/mL,4 µg/mL,> 125 µg/mL,2 µg/mL,8 µg/mL,,8 µg/mL,> 125 µg/mL,> 125 µg/mL,32 µg/mL,32 µg/mL,0.06 µg/mL,,> 125 µg/mL,"MIC (Pr. vulgaris A-9716; A9716, read-out: Minimum Inhibitory Concentration (M.I.C.), Proteus vulgaris / Proteus mirabilis A9716): 2 µg/mL; MIC ([1]; A21205, read-out: Minimum Inhibitory Concentration (M.I.C.)): 2 µg/mL; MIC ([5]; read-out: Minimum Inhibitory Concentration (M.I.C.), Staph. aureus A9606 (Pen-Res)): 2 µg/mL"
"O=C(O)C1=C(Cc2cccs2)SC2CC(=O)N12 (stereo not shown) [Preparation 8, 2-(2'-Thienyl)methyl-penem-3-carboxylic Acid]",1 µg/mL,32 µg/mL,16 µg/mL,0.03 µg/mL,< 0.008 µg/mL,1 µg/mL,> 125 µg/mL,1 µg/mL,> 125 µg/mL,0.5 µg/mL,,1 µg/mL,32 µg/mL,> 125 µg/mL,> 125 µg/mL,32 µg/mL,> 63 µg/mL,0.016 µg/mL,4 µg/mL,> 125 µg/mL,"MIC (Ent. cloacae A-9656; Enterobacter cloacae, A9656, Enterobacter cloacae A9656): 16 µg/mL"
